# Measurements published in publication PMC9736374, “Design, Synthesis and Antimicrobial Properties of New Tetracyclic Quinobenzothiazine Derivatives” (International Journal of Molecular Sciences, 2022).
# Test system: Staphylococcus aureus ATCC 29213
# Assay: MIC, microtitration broth method
# Format: cell-based
# Conditions: ATCC29213; SA = Staphylococcus aureus ATCC 29213; 24 h, 37 °C
row,Structure (SMILES),MIC [µM]
1,"C#CCOc1ccc2c(c1)Sc1c[n+](C)c3ccccc3c1N2 [Compound 6g, 9-propargyloxy-5-methyl-12H-quino[3,4-b][1,4]benzothiazinium chloride]",45.1

# Test system: methicillin-resistant S. aureus SA 3202 (MRSA1)
# Assay: MIC, microtitration broth method
# Format: cell-based
# Conditions: Staphylococcus aureus; MRSA1 = SA 3202; 24 h, 37 °C
row,Structure (SMILES),MIC [µM]
1,"C#CCOc1ccc2c(c1)Sc1c[n+](C)c3ccccc3c1N2 [Compound 6g, 9-propargyloxy-5-methyl-12H-quino[3,4-b][1,4]benzothiazinium chloride]",45.1

# Test system: methicillin-resistant S. aureus SA 630 (MRSA2)
# Assay: MIC, microtitration broth method
# Format: cell-based
# Conditions: Staphylococcus aureus; MRSA2 = SA 630; 24 h, 37 °C
row,Structure (SMILES),MIC [µM]
1,"C#CCOc1ccc2c(c1)Sc1c[n+](C)c3ccccc3c1N2 [Compound 6g, 9-propargyloxy-5-methyl-12H-quino[3,4-b][1,4]benzothiazinium chloride]",45.1

# Test system: methicillin-resistant S. aureus 63718 (MRSA3)
# Assay: MIC, microtitration broth method
# Format: cell-based
# Conditions: Staphylococcus aureus; MRSA3 = 63718; 24 h, 37 °C
row,Structure (SMILES),MIC [µM]
1,"C#CCOc1ccc2c(c1)Sc1c[n+](C)c3ccccc3c1N2 [Compound 6g, 9-propargyloxy-5-methyl-12H-quino[3,4-b][1,4]benzothiazinium chloride]",45.1

# Test system: Enterococcus faecalis ATCC 29212
# Assay: MIC, microtitration broth method
# Format: cell-based
# Conditions: ATCC29212; EF = Enterococcus faecalis; 24 h, 37 °C
row,Structure (SMILES),MIC [µM]
1,"C#CCOc1ccc2c(c1)Sc1c[n+](C)c3ccccc3c1N2 [Compound 6g, 9-propargyloxy-5-methyl-12H-quino[3,4-b][1,4]benzothiazinium chloride]",90.1

# Test system: vancomycin-resistant E. faecalis VRE 342B (VRE1)
# Assay: MIC, microtitration broth method
# Format: cell-based, Enterococcus faecalis
# Conditions: VRE1 = VRE 342B; 24 h, 37 °C
row,Structure (SMILES),MIC [µM]
1,"C#CCOc1ccc2c(c1)Sc1c[n+](C)c3ccccc3c1N2 [Compound 6g, 9-propargyloxy-5-methyl-12H-quino[3,4-b][1,4]benzothiazinium chloride]",90.1

# Test system: vancomycin-resistant E. faecalis VRE 368 (VRE2)
# Assay: MIC, microtitration broth method
# Format: cell-based, Enterococcus faecalis
# Conditions: VRE2 = VRE 368; 24 h, 37 °C
row,Structure (SMILES),MIC [µM]
1,"C#CCOc1ccc2c(c1)Sc1c[n+](C)c3ccccc3c1N2 [Compound 6g, 9-propargyloxy-5-methyl-12H-quino[3,4-b][1,4]benzothiazinium chloride]",90.1

# Test system: vancomycin-resistant E. faecalis VRE 725B (VRE3)
# Assay: MIC, microtitration broth method
# Format: cell-based, Enterococcus faecalis
# Conditions: VRE3 = VRE 725B; 24 h, 37 °C
row,Structure (SMILES),MIC [µM]
1,"C#CCOc1ccc2c(c1)Sc1c[n+](C)c3ccccc3c1N2 [Compound 6g, 9-propargyloxy-5-methyl-12H-quino[3,4-b][1,4]benzothiazinium chloride]",90.1

# Test system: M. smegmatis ATCC 700084
# Assay: In vitro antimycobacterial MIC, broth dilution micro-method
# Format: cell-based, Mycobacterium smegmatis
# Conditions: Mycolicibacterium smegmatis, ATCC700084, 72 h; MS = M. smegmatis ATCC 700084; 3 days, 37 °C
row,Structure (SMILES),MIC [µM]
1,"C#CCOc1ccc2c(c1)Sc1c[n+](C)c3ccccc3c1N2 [Compound 6g, 9-propargyloxy-5-methyl-12H-quino[3,4-b][1,4]benzothiazinium chloride]",22.5

# Test system: Mycobacterium marinum CAMP 5644
# Assay: as above
# Format: cell-based
# Conditions: CAMP5644, 504 h; MM = Mycobacterium marinum CAMP 5644; 21 days, 28 °C
row,Structure (SMILES),MIC [µM]
1,"C#CCOc1ccc2c(c1)Sc1c[n+](C)c3ccccc3c1N2 [Compound 6g, 9-propargyloxy-5-methyl-12H-quino[3,4-b][1,4]benzothiazinium chloride]",11.3

# Test system: Staphylococcus aureus ATCC 29213
# Assay: MBC, agar aliquot subculture method
# Format: cell-based
# Conditions: ATCC29213; SA = Staphylococcus aureus ATCC 29213
row,Structure (SMILES),MBC [µM]
1,"C#CCOc1ccc2c(c1)Sc1c[n+](C)c3ccccc3c1N2 [Compound 6g, 9-propargyloxy-5-methyl-12H-quino[3,4-b][1,4]benzothiazinium chloride]",45.1

# Test system: methicillin-resistant S. aureus SA 3202 (MRSA1)
# Assay: MBC, agar aliquot subculture method
# Format: cell-based
# Conditions: Staphylococcus aureus; MRSA1 = SA 3202
row,Structure (SMILES),MBC [µM]
1,"C#CCOc1ccc2c(c1)Sc1c[n+](C)c3ccccc3c1N2 [Compound 6g, 9-propargyloxy-5-methyl-12H-quino[3,4-b][1,4]benzothiazinium chloride]",45.1

# Test system: methicillin-resistant S. aureus SA 630 (MRSA2)
# Assay: MBC, agar aliquot subculture method
# Format: cell-based
# Conditions: Staphylococcus aureus; MRSA2 = SA 630
row,Structure (SMILES),MBC [µM]
1,"C#CCOc1ccc2c(c1)Sc1c[n+](C)c3ccccc3c1N2 [Compound 6g, 9-propargyloxy-5-methyl-12H-quino[3,4-b][1,4]benzothiazinium chloride]",45.1

# Test system: methicillin-resistant S. aureus 63718 (MRSA3)
# Assay: MBC, agar aliquot subculture method
# Format: cell-based
# Conditions: Staphylococcus aureus; MRSA3 = 63718
row,Structure (SMILES),MBC [µM]
1,"C#CCOc1ccc2c(c1)Sc1c[n+](C)c3ccccc3c1N2 [Compound 6g, 9-propargyloxy-5-methyl-12H-quino[3,4-b][1,4]benzothiazinium chloride]",45.1

# Test system: Enterococcus faecalis ATCC 29212
# Assay: MBC, agar aliquot subculture method
# Format: cell-based
# Conditions: ATCC29212; EF = Enterococcus faecalis
row,Structure (SMILES),MBC [µM]
1,"C#CCOc1ccc2c(c1)Sc1c[n+](C)c3ccccc3c1N2 [Compound 6g, 9-propargyloxy-5-methyl-12H-quino[3,4-b][1,4]benzothiazinium chloride]",90.1

# Test system: vancomycin-resistant E. faecalis VRE 342B (VRE1)
# Assay: MBC, agar aliquot subculture method
# Format: cell-based, Enterococcus faecalis
# Conditions: VRE1 = VRE 342B
row,Structure (SMILES),MBC [µM]
1,"C#CCOc1ccc2c(c1)Sc1c[n+](C)c3ccccc3c1N2 [Compound 6g, 9-propargyloxy-5-methyl-12H-quino[3,4-b][1,4]benzothiazinium chloride]",90.1

# Test system: vancomycin-resistant E. faecalis VRE 368 (VRE2)
# Assay: MBC, agar aliquot subculture method
# Format: cell-based, Enterococcus faecalis
# Conditions: VRE2 = VRE 368
row,Structure (SMILES),MBC [µM]
1,"C#CCOc1ccc2c(c1)Sc1c[n+](C)c3ccccc3c1N2 [Compound 6g, 9-propargyloxy-5-methyl-12H-quino[3,4-b][1,4]benzothiazinium chloride]",90.1

# Test system: vancomycin-resistant E. faecalis VRE 725B (VRE3)
# Assay: MBC, agar aliquot subculture method
# Format: cell-based, Enterococcus faecalis
# Conditions: VRE3 = VRE 725B
row,Structure (SMILES),MBC [µM]
1,"C#CCOc1ccc2c(c1)Sc1c[n+](C)c3ccccc3c1N2 [Compound 6g, 9-propargyloxy-5-methyl-12H-quino[3,4-b][1,4]benzothiazinium chloride]",90.1

# Test system: normal human dermal fibroblasts (NHDF)
# Assay: In vitro cell viability, WST-1 assay
# Format: cell-based
# Conditions: 72 h
# Method: Compounds were evaluated for their antiproliferative activity using NHDF (normal human dermal fibroblasts, ATCC, Manassas, VA, USA). The cultured cells were kept at 37 °C and 5% CO2. The cells were seeded (1 × 10^4 cells/well/100 μL DMEM supplemented with 10% FCS and streptomycin/penicillin) into 96-well plates (Corning Inc., Corning, NY, USA). Cells were counted using a hemocytometer (Burker chamber) and phase contrast Olympus IX50 microscope equipped with Sony SSC-DC58 AP camera and Olympus DP10 digital camera. The cell viability of the compounds was determined using the Cell Proliferation Reagent WST-1 assay (Roche Molecular Biochemicals, Mannheim, Germany). The examined cells were exposed to the tested compounds (1 mg/mL DMSO stock) for 72 h at various concentrations (0.1–100 μg/mL). The control was included in order to eliminate the DMSO effect at the concentration used. Cell cultures were incubated with WST-1 (10 μL) for 1 h. The absorbance of the samples was measured against a background control at 450 nm using a microplate reader with a reference wavelength at 600 nm. The obtained results are expressed as means of at least two independent experiments performed in triplicate.
row,Structure (SMILES),IC50 [µM]
1,"C#CCOc1ccc2c(c1)Sc1c[n+](C)c3ccccc3c1N2 [Compound 6g, 9-propargyloxy-5-methyl-12H-quino[3,4-b][1,4]benzothiazinium chloride]",> 100

# Test system: not listed separately
# Assay: Lipophilicity by RP-TLC
# Format: physicochemical
# Conditions: Tris buffer pH 7.4/acetone, read-out: logPTLC
# Method: The lipophilicity parameters were determined experimentally using reverse phase thin-layer chromatography (RP-TLC). Chromatograms were prepared on RP-18F254s plates (1.05559.0001, Merck, Germany) precoated with nonpolar silicone oil. Plates were developed in glass chromatography chambers previously saturated with vapor of mobile phase. The mobile phase was composed of 0.2M Tris buffer (pH = 7.4) and acetone in different concentrations, i.e., 50%, 60%, 70%, 80 and 90%. The chromatograms were visualised in UV light (λ = 254 nm). Determination of the RF coefficient was carried out twice for all compounds; in all cases, acetone concentrations used. The final value of RF is the mean of the two measurements. The obtained RF coefficient was used to calculate the value of the RM parameter according to the equation: RM = log [(1/RF) − 1]. By extrapolating RM values to zero acetone concentration, a relative RM0 lipophilicity parameter was obtained, according to the equation: RM = RM0 + bC, where b is slope and C is concentration of acetone in mobile phase. Based on RM0 and the calibration curve, the values of logPTLC for compounds 6a–l were determined. The calibration curve was calculated using the relationship between RM0 of the standard molecules (acetanilide, p-kresol, p-bromoacetophenone, benzophenone, anthracene) and the corresponding logP parameters specified by the extraction method, respectively. RM0 parameters of the standard molecules and quinobenzothiazine derivatives 6a–l were determined in the same empirical conditions.
row,Structure (SMILES),chromatographic logP
1,"C#CCOc1ccc2c(c1)Sc1c[n+](C)c3ccccc3c1N2 [Compound 6g, 9-propargyloxy-5-methyl-12H-quino[3,4-b][1,4]benzothiazinium chloride]",2.11

# Test system: S. aureus ATCC 29213 respiratory activity
# Assay: MTT assay of bacterial respiration
# Format: cell-based, Staphylococcus aureus
# Conditions: S. aureus ATCC 29213, MTT, 24 h
Structure (SMILES),Conc.: corresponding multiple of MBC with at least 70% inhibition of respiratory activity,Conc.: lowest multiple of MIC with at least 70% inhibition of respiratory activity
"C#CCOc1ccc2c(c1)Sc1c[n+](C)c3ccccc3c1N2 [Compound 6g, 9-propargyloxy-5-methyl-12H-quino[3,4-b][1,4]benzothiazinium chloride]",2× MIC (2× MBC),2× MIC (2× MBC)

# Same assay, conditions: S. aureus ATCC 29213, at MIC
row,Structure (SMILES),Decrease in viability < 70% at MIC value (MTT)
1,"C#CCOc1ccc2c(c1)Sc1c[n+](C)c3ccccc3c1N2 [Compound 6g, 9-propargyloxy-5-methyl-12H-quino[3,4-b][1,4]benzothiazinium chloride]",did not show a decrease in viability < 70%

# Same assay, conditions: at the concentration given
row,Structure (SMILES),S. aureus Respiration Inhibition [%]
1,"C#CCOc1ccc2c(c1)Sc1c[n+](C)c3ccccc3c1N2 [Compound 6g, 9-propargyloxy-5-methyl-12H-quino[3,4-b][1,4]benzothiazinium chloride]",96.8

# Test system: S. aureus
# Assay: Crystal violet uptake (membrane permeability)
# Format: cell-based, Staphylococcus aureus
# Conditions: 4× MIC, 1 h; compared to growth control and 1% Tween 20
# Method: Phenothiazines are also known for their ability to interact with and damage the cell wall, which has fatal consequences for the microorganism. Therefore, the bacterial suspensions were treated by compounds 6a, 6e, 6g, 6j and 6k (4× MIC) for 1 h. The uptake of crystal violet was expressed as a percentage compared to the original crystal violet solution.
row,Structure (SMILES),Effect on plasma membrane permeability (uptake of crystal violet)
1,"C#CCOc1ccc2c(c1)Sc1c[n+](C)c3ccccc3c1N2 [Compound 6g, 9-propargyloxy-5-methyl-12H-quino[3,4-b][1,4]benzothiazinium chloride]",did not affect plasma membrane permeability
